Like-named read-outs stand apart in the source and are kept apart here.
What was measured:
[1] = test system: BRCA-2 deficient CAPAN-1 human pancreatic cancer cells; test: Cell growth inhibition of BRCA-2 deficient CAPAN-1 cells, MTT based cell viability assay; conditions: read-out: Growth inhibition of CAPAN-1 cells by compounds (IC50)
Description: BRCA-2 deficient CAPAN-1 human pancreatic cancer cells were used to test the growth inhibiting activity of substituted 1-(arylmethyl)-5,6,7,8-tetrahydroquinazoline-2,4(1H,3H)-diones. Briefly, CAPAN-1 cells are grown and maintained in IMEM medium supplemented with 20% FBS. The assay takes 10 days to finish. On day 1, 6000 CAPAN-1 cells are seeded to each well of a 96-well plate. The cells are incubated at 37° C. in a CO2 cell culture incubator overnight. […] Ten-fold compound solutions were made by mixing 10 μl DMSO serial dilution solutions with 90 μl fresh growth medium. The cell culture medium was removed and 180 μl fresh media with FBS and 20 μl of compound solutions were added to each well. The final concentration of DMSO was 1%. Cells were then returned to the CO2 cell culture incubator and incubated at 37° C. for two days (day 3 and day 4). On day 5, the same procedure as what was done on day 2 was repeated. Cell culture medium was removed and fresh medium containing serial dilutions of compounds or reference compounds were added. Cells were returned to the CO2 cell culture incubator and incubated for two more days. On day 8, same procedure was repeated again and fresh medium containing the testing compounds or reference compounds were added and incubated for an additional 2 days. On day 10, 20 μl of MTT reagent (5 mg/ml) was added to each well of the cell culture plate and incubated for 4 h. The cell culture media was removed and 100 μl DMSO was added to each well. The 96-well cell culture plates were shaked horizontally for 10 min and readed in a Varioskan Flash plate reader (Thermo Fisher Scientific) at 520 and 690 nm. The obtained 520 nm absorbance readings substracting corresponding 690 nm reading were analyzed using a commercial graphic software (GraphPad Prism 5) and plotted against the Log scale of the compound concentrations.

PARP-1 enzyme = molecular target: T1, PARP-1 enzyme (Homo sapiens, UniProt P09874); test: PARP-1 enzymatic activity assay (Trevigen 96-well kit); format: biochemical; conditions: 0.5 unit PARP-1, histone pre-coated plate, 60 min room temperature; read-out: The inhibitory effect of compounds on PARP-1 enzymatic activity (IC50)
T1 construct: purchased Trevigen, Inc. 4676-096-K
Description: Briefly, PARP-1 catalyzes the NAD-dependent addition of poly(ADP-ribose) to its nuclear protein substrates such as histones. The assay kit measures the incorporation of biotynylated poly(ADP-ribose) onto histone proteins in a 96-well format.
To each well of histone pre-coated plate 10 μl of 5-fold concentrations of testing compounds or reference compound, 15 μl of PARP-1 enzyme (0.5 unit) and 25 μl reaction buffer were added and the plates were incubated at room temperature for 60 min. The plates were washed with 200 μl PBS with 0.1% Triton X-100 twice and then with 200 μl PBS twice. The residual liquid was removed by carefully tapping the plates on paper towels. Equal volumes of PeroxyGlow™ solution A and B were mixed and 100 μl of the solution was added to each well. The luminescence readings were read immediately in a Varioskan Flash plate reader (Thermo Fisher Scientific).

[2] = test system: Human breast cancer cell line T47D; test: Potentiation of MMS induced apoptosis, cell based caspase-3 activity assay; conditions: read-out: Compounds potentiate the apoptosis inducing activity of MMS (EC50);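 note: Caspase-3 activity in cell lysates measured by fluorescence (RFU), EC50 fitted from sigmoidal curve of signal versus log compound concentration in presence of MMS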
Description: Human breast cancer cell line T47D (Nanjing KeyGEN Biotech. CO., LTD.) was used to determine the potentiation effect of PARP-1 inhibitors on the apoptosis inducing activity of DNA damaging anticancer drugs such as MMS. Intracellular caspase-3 activity was used to measure cell apoptosis. Briefly, T47D cells were grown in DMEM/F12 cell culture medium (Hyclone) supplemented with 0.2 U/ml insulin (Genview) and 10% FBS (Hyclone). A day before experiment, 20000 of T47D cells were seeded to each well of a 96-well cell culture plate and maintained at 37° C. and 5% CO2 in a cell culture incubator overnight. On the day of experiment, cell culture medium was removed. […] The serial dilutions of the compounds to be tested and the reference compounds were made in a 1:3 and 1:10 fashion in DMSO. The 10-fold compound solutions were made by mixing 10 μl DMSO serial dilution solutions with 90 μl fresh growth medium. Twenty four hours later, the cells in the 96-well plates were centrifuged at 1000 g for 5 min and the supernatants were removed. 50 μl lysis buffer (10 mM Tris, pH 7.5, 0.1M NaCl, 1 mM EDTA, 0.01% Triton X-100) was added to each well and the plates were shaked horizontally for 30 min at 4° C. After centrifugation at 1000 g at 4° C. for 10 min, 20 μl of supernatant was transferred from each well to a corresponding well in a 384-well black plate. […] The plates were shaked to uniformly mix the wells and incubated at 37° C. for 3 h. […] The caspase-3 activity induced by the compounds was expressed as a relative fluorescence unit (RFU). The obtained fluorescence readings were analyzed using a commercial graphic software (GraphPad Prism 5) and plotted against the Log value of the compound concentrations. The EC50 values were obtained by fitting the data points with the equation of Y (fluorescence reading)=minimal fluorescence reading+(maximal fluorescence reading−minimal fluorescence reading)/(1+10̂(LogEC50−LogC)), where C is the concentration of the testing compound. The EC50 values were obtained by fitting the data points with S-shaped dose response curve equation (GraphPad Software, Inc).

[3] = test system: SW620 human colorectal cancer cells; test: Potentiation of the growth inhibiting activity of MMS, MTT based cell viability assay; conditions: read-out: Compounds potentiate the growth inhibiting activity of MMS (IC50)
Description: The synergistic potentiation effect of PARP inhibitors on the growth inhibiting activity of DNA damaging anticancer drugs such as methyl methanesulphonate (MIMS) were measured with SW620 human colorectal cancer cells (Shanghai Cancer Institute) using a MTT based cell viability assay. SW620 cells were grown and maintained in RPMI1640 (Gibco) medium supplemented with 10% FBS (Hyclone). In the first day of experiment, 4000 cells were seeded to each well of a 96-well cell culture plate and incubated at 37° C. and 5% CO2 in a cell culture incubator overnight. In the next day, the cell culture medium was removed. […] The serial dilutions of the reference compounds and the compounds to be tested were made with a 1:3 and 1:10 fashion in DMSO. The 10-fold concentrated solutions of these compounds were made by mixing 10 μl of the serial dilutions in DMSO with 90 μl fresh medium. The final concentration of DMSO in the medium was 1%. The cells were incubated at 37° C. in 5% CO2 cell culture incubator for additional 5 days (120 hours). Afterwards, the 96-well cell culture plate was taken out and 20 μl of MTT solution was added to each well and incubated at 37° C. for 4 h. The medium was removed and 100 μl DMSO was added to each well. The 96-well cell culture plates were shaked adequately for 10 min and readed in a Varioskan Flash plate reader (Thermo Fisher Scientific) at 520 and 690 nm. The data were analyzed by Prism 5 software (GraphPad). The obtained 520 nm absorbance readings substracting corresponding 690 nm reading were analyzed and plotted against the Log scale of the compound concentrations.

[4] = BRCA-2 deficient CAPAN-1 cells, 10 day assay, MTT
[5] = T47D cells, 100 nM MMS, 24 hours, intracellular caspase-3 activity
[6] = SW620 cells, medium containing 1.5 μg/ml MMS, 5 days (120 hours), MTT

T1 sequence (P09874 whole entry): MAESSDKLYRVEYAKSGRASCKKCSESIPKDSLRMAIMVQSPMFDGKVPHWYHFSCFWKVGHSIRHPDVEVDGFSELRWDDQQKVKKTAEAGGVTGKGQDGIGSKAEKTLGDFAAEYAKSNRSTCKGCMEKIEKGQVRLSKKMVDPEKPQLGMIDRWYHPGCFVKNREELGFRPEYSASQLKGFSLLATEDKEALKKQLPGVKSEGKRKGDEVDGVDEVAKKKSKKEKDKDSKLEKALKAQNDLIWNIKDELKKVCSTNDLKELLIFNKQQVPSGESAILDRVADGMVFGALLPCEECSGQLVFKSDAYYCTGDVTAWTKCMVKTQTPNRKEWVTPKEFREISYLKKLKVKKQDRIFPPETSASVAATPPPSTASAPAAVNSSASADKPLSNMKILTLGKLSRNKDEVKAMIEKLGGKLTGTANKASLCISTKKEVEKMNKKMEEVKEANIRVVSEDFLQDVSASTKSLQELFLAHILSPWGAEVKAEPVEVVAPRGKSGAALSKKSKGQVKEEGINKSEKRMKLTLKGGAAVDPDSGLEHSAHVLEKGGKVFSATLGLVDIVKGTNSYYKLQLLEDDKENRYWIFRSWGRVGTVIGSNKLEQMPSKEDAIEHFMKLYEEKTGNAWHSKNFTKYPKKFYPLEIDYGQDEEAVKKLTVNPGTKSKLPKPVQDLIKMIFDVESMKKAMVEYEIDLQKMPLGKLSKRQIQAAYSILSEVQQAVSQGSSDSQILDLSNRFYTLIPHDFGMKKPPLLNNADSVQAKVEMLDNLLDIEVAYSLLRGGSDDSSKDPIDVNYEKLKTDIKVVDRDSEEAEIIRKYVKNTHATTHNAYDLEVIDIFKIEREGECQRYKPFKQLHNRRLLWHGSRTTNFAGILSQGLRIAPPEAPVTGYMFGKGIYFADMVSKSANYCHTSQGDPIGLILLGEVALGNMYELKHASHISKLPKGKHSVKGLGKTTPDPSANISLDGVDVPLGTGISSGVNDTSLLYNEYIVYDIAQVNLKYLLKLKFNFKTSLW

Structure (SMILES)	IC50 ([1]; Homo sapiens, CAPAN-1, 240 h) [nM]	IC50 (PARP-1 enzyme) [nM]	EC50 ([2]; Homo sapiens, T47D, 24 h) [nM]	IC50 ([3]; Homo sapiens, SW-620, 120 h) [nM]	IC50 [1, 4] [nM]	EC50 [2, 5] [nM]	IC50 [3, 6] [nM]
O=C(c1cc(Cn2c3c(c(=O)[nH]c2=O)CCCC3)ccc1F)N1CCN(C(=O)C2CCC2)CC1 [Example 22, 1-(4-Fluoro-3-(4-(cyclobutylcarbonyl)piperazine-1-carbonyl)benzyl)-5,6,7,8-tetrahydroquinazoline-2,4(1H,3H)-dione]	117	–	2.8	1.7	–	–	–
O=C(c1cc(Cn2c3c(c(=O)[nH]c2=O)CCCC3)ccc1F)N1CCN(c2nccs2)CC1 [Example 23, 1-(4-Fluoro-3-(4-(thiazol-2-yl)piperazine-1-carbonyl)benzyl)-5,6,7,8-tetrahydroquinazoline-2,4(1H,3H)-dione]	49	–	1.6	1.5	–	–	–
O=C(c1cc(Cn2c3c(c(=O)[nH]c2=O)CCCC3)ccc1F)N1CCN(C(=O)C2CCCCC2)CC1 [Example 24, 1-(4-Fluoro-3-(4-(cyclohexylcarbonyl)piperazine-1-carbonyl)benzyl)-5,6,7,8-tetrahydroquinazoline-2,4(1H,3H)-dione]	58	–	9.9	3.6	–	–	–
O=C(c1cc(Cn2c3c(c(=O)[nH]c2=O)CCCC3)ccc1F)N1CCN(c2ccccn2)CC1 [Example 26, 1-(4-Fluoro-3-(4-(pyridin-2-yl)piperazine-1-carbonyl)benzyl)-5,6,7,8-tetrahydroquinazoline-2,4(1H,3H)-dione]	93	–	5.6	2.3	–	–	–
O=C(c1cc(Cn2c3c(c(=O)[nH]c2=O)CCCC3)ccc1F)N1CCN(C(=O)C2CCCO2)CC1 (stereo not shown) [Example 39, 1-(4-Fluoro-3-(4-(tetrahydrofuran-2-carbonyl)piperazine-1-carbonyl)benzyl)-5,6,7,8-tetrahydroquinazoline-2,4(1H,3H)-dione]	152	–	32	15	–	–	–
O=C(c1ccc(F)c(Cn2c3c(c(=O)[nH]c2=O)CCCC3)c1)N1CCN(c2ncccn2)CC1 [Example 41]	–	–	–	–	19	2.2	4.1
O=C(c1ccc(F)c(Cn2c3c(c(=O)[nH]c2=O)CCCC3)c1)N1CCN(c2ccccn2)CC1 [Example 47, 1-(6-Fluoro-3-(4-(pyridin-2-yl)piperazine-1-carbonyl)benzyl)-5,6,7,8-tetrahydroquinazoline-2,4(1H,3H)-dione]	116	–	6.4	4.6	–	–	–
O=C(c1cc(Cn2c3c(c(=O)[nH]c2=O)CCCC3)ccc1F)N1CCN(C(=O)C2CCOCC2)CC1 [Example 53, 1-(4-Fluoro-3-(4-(tetrahydro-2H-pyran-4-carbonyl)piperazine-1-carbonyl)benzyl)-5,6,7,8-tetraquinazoline-2,4(1H,3H)-dione]	–	–	–	–	272	98	61
O=C(c1cc(Cn2c3c(c(=O)[nH]c2=O)SCCC3)ccc1F)N1CCN(c2ncccn2)CC1 [Example 60]	–	–	–	–	761	30	7.6

Further molecules by falling IC50 ([1]; Homo sapiens, CAPAN-1, 240 h), results first:

IC50 ([1]; Homo sapiens, CAPAN-1, 240 h) [nM]	IC50 (PARP-1 enzyme) [nM]	EC50 ([2]; Homo sapiens, T47D, 24 h) [nM]	IC50 ([3]; Homo sapiens, SW-620, 120 h) [nM]	IC50 [1, 4] [nM]	EC50 [2, 5] [nM]	IC50 [3, 6] [nM]	Structure (SMILES)
3650	–	187	7.6	–	–	–	O=C(c1cc(Cn2c3c(c(=O)[nH]c2=O)CCCC3)ccc1F)N1CCN(c2ccccc2)CC1 [Example 33, 1-(4-Fluoro-3-(4-phenylpiperazine-1-carbonyl)benzyl)-5,6,7,8-tetrahydroquinazoline-2,4(1H,3H)-dione]
2270	–	25	10	–	–	–	O=C(c1cc(Cn2c3c(c(=O)[nH]c2=O)CCCC3)ccc1F)N1CCN(CC2CCCCC2)CC1 [Example 38, 1-(4-Fluoro-3-(4-(cyclohexylmethyl)piperazine-1-carbonyl)benzyl)-5,6,7,8-tetrahydroquinazoline-2,4(1H,3H)-dione]
1240	–	32	12	–	–	–	O=C(c1cc(Cn2c3c(c(=O)[nH]c2=O)CCCC3)ccc1F)N1CCN(C2CCCCC2)CC1 [Example 30, 1-(4-Fluoro-3-(4-cyclohexylpiperazine-1-carbonyl)benzyl)-5,6,7,8-tetrahydroquinazoline-2,4(1H,3H)-dione]
1000	–	12	16	–	–	–	O=C(c1ccc(F)c(Cn2c3c(c(=O)[nH]c2=O)CCCC3)c1)N1CCN(C(=O)C2CCC2)CC1 [Example 50, 1-(6-Fluoro-3-(4-(cyclobutylcarbonyl)piperazine-1-carbonyl)benzyl)-5,6,7,8-tetrahydroquinazoline-2,4(1H,3H)-dione]
703	–	13	10	–	–	–	O=C(c1ccsc1)N1CCN(C(=O)c2ccc(F)c(Cn3c4c(c(=O)[nH]c3=O)CCCC4)c2)CC1 [Example 46, 1-(6-Fluoro-3-(4-(thiophene-3-carbonyl)piperazine-1-carbonyl)benzyl)-5,6,7,8-tetrahydroquinazoline-2,4(1H,3H)-dione]
297	–	14	4.9	–	–	–	O=C(c1cc(Cn2c3c(c(=O)[nH]c2=O)CCCC3)ccc1F)N1CCN(c2cnccn2)CC1 [Example 28, 1-(4-Fluoro-3-(4-(pyrazin-2-yl)piperazine-1-carbonyl)benzyl)-5,6,7,8-tetrahydroquinazoline-2,4(1H,3H)-dione]
285	–	12	4	–	–	–	O=C(c1ccoc1)N1CCN(C(=O)c2cc(Cn3c4c(c(=O)[nH]c3=O)CCCC4)ccc2F)CC1 [Example 35, 1-(4-Fluoro-3-(4-(furan-3-carbonyl)piperazine-1-carbonyl)benzyl)-5,6,7,8-tetrahydroquinazoline-2,4(1H,3H)-dione]
221	–	13	3.4	–	–	–	O=C(c1ccsc1)N1CCN(C(=O)c2cc(Cn3c4c(c(=O)[nH]c3=O)CCCC4)ccc2F)CC1 [Example 36, 1-(4-Fluoro-3-(4-(thiophene-3-carbonyl)piperazine-1-carbonyl)benzyl)-5,6,7,8-tetrahydroquinazoline-2,4(1H,3H)-dione]
146	–	4	4.8	–	–	–	O=C(c1ccc(F)c(Cn2c3c(c(=O)[nH]c2=O)CCCC3)c1)N1CCN(C(=O)C2CCCC2)CC1 [Example 42, 1-(6-Fluoro-3-(4-(cyclopentylcarbonyl)piperazine-1-carbonyl)benzyl)-5,6,7,8-tetrahydroquinazoline-2,4(1H,3H)-dione]
134	–	11	13	–	–	–	O=C(c1ccc(F)c(Cn2c3c(c(=O)[nH]c2=O)CCCC3)c1)N1CCN(c2nccs2)CC1 [Example 51, 1-(6-Fluoro-3-(4-(thiazol-2-yl)piperazine-1-carbonyl)benzyl)-5,6,7,8-tetrahydroquinazoline-2,4(1H,3H)-dione]
123	–	7.2	5.3	–	–	–	O=C(c1ccc(F)c(Cn2c3c(c(=O)[nH]c2=O)CCCC3)c1)N1CCN(C(=O)C2CCCCC2)CC1 [Example 49, 1-(6-Fluoro-3-(4-(cyclohexylcarbonyl)piperazine-1-carbonyl)benzyl)-5,6,7,8-tetrahydroquinazoline-2,4(1H,3H)-dione]
81	–	58	9.7	–	–	–	O=C(c1ccco1)N1CCN(C(=O)c2cc(Cn3c4c(c(=O)[nH]c3=O)CCCC4)ccc2F)CC1 [Example 27, 1-(4-Fluoro-3-(4-(furan-2-carbonyl)piperazine-1-carbonyl)benzyl)-5,6,7,8-tetrahydroquinazoline-2,4(1H,3H)-dione]
69	–	6.2	1.9	–	–	–	O=C(c1cc(Cn2c3c(c(=O)[nH]c2=O)CCCC3)ccc1F)N1CCN(C(=O)C2CCCC2)CC1 [Example 25, 1-(4-Fluoro-3-(4-(cyclopentylcarbonyl)piperazine-1-carbonyl)benzyl)-5,6,7,8-tetrahydroquinazoline-2,4(1H,3H)-dione]
17	2.6	0.99	0.83	–	–	–	O=C(c1cc(Cn2c3c(c(=O)[nH]c2=O)CCCC3)ccc1F)N1CCN(c2ncccn2)CC1 [Example 20]

From patent publication US20140275711A1, “1-(Arylmethyl)-5,6,7,8-tetrahydroquinazolline-2,4-diones and Analogs and the Use Thereof” (Impact Therapeutics, Inc., priority 2011, published 2014)
